According to ChEMBL document CHEMBL1138518 (J Med Chem, 2009):

How the values were obtained:
SK-BR-3 = experiment: Cytotoxicity against human SKBR3 cells after 72 hrs by celltiter-glo assay; type: functional, cell-based; conditions: Homo sapiens, SK-BR-3, 72 h
[1] = target: Heat shock protein HSP 90-beta (Homo sapiens, UniProt P08238); experiment: Binding affinity to human recombinant HSP90
[2] = Dissociation constant, pKa of the compound; type: physicochemical
MCF7 = experiment: Cytotoxicity against human MCF7 cells after 72 hrs by celltiter-glo assay; type: functional, cell-based; conditions: MCF7, 72 h
SK-OV-3 = experiment: Cytotoxicity against human SKOV3 cells after 72 hrs by celltiter-glo assay; type: functional, cell-based; conditions: SK-OV-3, 72 h
A549 = experiment: Cytotoxicity against human A549 cells after 72 hrs by celltiter-glo assay; type: functional, cell-based; conditions: A549, 72 h
CCRF-CEM [3] = experiment: Cytotoxicity against human CCRF-CEM cells after 72 hrs by celltiter-96 aqueous one solution assay; type: functional, cell-based
CCRF-CEM [4] = experiment: Cytotoxicity against human paclitaxel-resistant CCRF-CEM cells after 72 hrs by celltiter-96 aqueous one solution assay; type: functional, cell-based
[5] = Chemical stability assessed as half life at pH 7.75; type: physicochemical; conditions: buffer

Chain of Heat shock protein HSP 90-beta (P08238 whole entry): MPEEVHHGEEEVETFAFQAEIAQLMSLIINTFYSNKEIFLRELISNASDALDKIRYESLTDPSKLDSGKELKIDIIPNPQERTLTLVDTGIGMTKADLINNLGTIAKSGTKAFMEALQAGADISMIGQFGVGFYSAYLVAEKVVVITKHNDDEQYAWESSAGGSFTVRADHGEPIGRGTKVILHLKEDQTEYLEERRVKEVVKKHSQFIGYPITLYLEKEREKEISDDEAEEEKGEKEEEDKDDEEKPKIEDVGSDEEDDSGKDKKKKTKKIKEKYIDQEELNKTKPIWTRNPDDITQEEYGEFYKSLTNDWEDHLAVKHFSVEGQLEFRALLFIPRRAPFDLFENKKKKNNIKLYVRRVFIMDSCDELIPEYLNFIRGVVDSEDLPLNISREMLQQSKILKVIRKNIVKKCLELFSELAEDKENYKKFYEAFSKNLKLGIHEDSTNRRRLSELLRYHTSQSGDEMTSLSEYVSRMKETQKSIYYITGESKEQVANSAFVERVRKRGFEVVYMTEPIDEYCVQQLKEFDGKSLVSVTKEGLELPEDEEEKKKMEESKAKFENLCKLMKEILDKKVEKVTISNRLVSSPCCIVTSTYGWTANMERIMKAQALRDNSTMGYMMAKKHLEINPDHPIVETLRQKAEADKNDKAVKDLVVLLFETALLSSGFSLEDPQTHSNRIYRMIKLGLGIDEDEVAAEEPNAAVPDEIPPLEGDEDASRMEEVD

Structure (SMILES)	Kd [1]	pKa [2]	half-life [5]	IC50 (SK-BR-3)	IC50 (MCF7)	IC50 (SK-OV-3)	IC50 (A549)	IC50 (CCRF-CEM [3])	IC50 (CCRF-CEM [4])
CO[C@H]1/C=C\C=C(/C)C(=O)NC2=CC(=O)C(NCCN(C)C)=C(C[C@@H](C)C[C@H](OC)[C@H](NCCF)[C@@H](C)/C=C(\C)[C@@H]1OC(N)=O)C2=O (stereo in doubt)	> 50000 nM	9		390 nM					
CO[C@H]1[C@@H](OC)C[C@H](C)CC2=C(NCCN(C)C)C(=O)C=C(NC(=O)/C(C)=C/C=C\[C@H](OC)[C@@H](OC(N)=O)/C(C)=C/[C@@H]1C)C2=O	800 nM			11 nM	50 nM	43 nM	23 nM	58 nM	390 nM
CNCCNC1=C2C[C@@H](C)C[C@H](OC)[C@H](OC(=O)CN)[C@@H](C)/C=C(\C)[C@H](OC(N)=O)[C@@H](OC)/C=C\C=C(/C)C(=O)NC(=CC1=O)C2=O (stereo in doubt)	> 25000 nM		74 h	340 nM					
CO[C@H]1[C@@H](OC)C[C@H](C)CC2=C(NCCF)C(=O)C=C(NC(=O)/C(C)=C/C=C\[C@H](OC)[C@@H](OC(N)=O)/C(C)=C/[C@@H]1C)C2=O (stereo in doubt)	2300 nM			130 nM	58 nM	460 nM	67 nM	960 nM	2700 nM
CO[C@H]1/C=C\C=C(/C)C(=O)NC2=CC(=O)C(NCCN(C)C)=C(C[C@@H](C)C[C@H](OC)[C@H](N)[C@@H](C)/C=C(\C)[C@@H]1OC(N)=O)C2=O (stereo in doubt)	> 25000 nM	9.2		415 nM					
CO[C@H]1/C=C\C=C(/C)C(=O)NC2=CC(=O)C(NCCN(C)C)=C(C[C@@H](C)C[C@H](OC)[C@H](NCC(F)F)[C@@H](C)/C=C(\C)[C@@H]1OC(N)=O)C2=O (stereo in doubt)	2900 nM	7.5		370 nM					
CO[C@H]1[C@@H](OC)C[C@H](C)CC2=C(N3CCC3)C(=O)C=C(NC(=O)/C(C)=C/C=C\[C@H](OC)[C@@H](OC(N)=O)/C(C)=C/[C@@H]1C)C2=O (stereo in doubt)	4000 nM			24 nM	63 nM	110 nM	29 nM	420 nM	2500 nM
CO[C@H]1[C@@H](OC)C[C@H](C)CC2=C(NCCN3CCCC3)C(=O)C=C(NC(=O)/C(C)=C/C=C\[C@H](OC)[C@@H](OC(N)=O)/C(C)=C/[C@@H]1C)C2=O (stereo in doubt)	1000 nM			160 nM	76 nM	69 nM	62 nM	160 nM	520 nM

Continued, in another order:

Kd [1]	pKa [2]	half-life [5]	Structure (SMILES)	IC50 (SK-BR-3)	IC50 (MCF7)	IC50 (SK-OV-3)	IC50 (A549)	IC50 (CCRF-CEM [3])	IC50 (CCRF-CEM [4])
> 10000 nM	8.9		CO[C@H]1/C=C\C=C(/C)C(=O)NC2=CC(=O)C(NCCN(C)C)=C(C[C@@H](C)C[C@H](OC)[C@H](NCCC(F)(F)F)[C@@H](C)/C=C(\C)[C@@H]1OC(N)=O)C2=O (stereo in doubt)	830 nM					
> 25000 nM		200 h	COC1=C2C[C@@H](C)C[C@H](OC)[C@H](OC(=O)CCN)[C@@H](C)/C=C(\C)[C@H](OC(N)=O)[C@@H](OC)/C=C\C=C(/C)C(=O)NC(=CC1=O)C2=O (stereo in doubt)	1700 nM					
2800 nM			C=CCNC1=C2C[C@@H](C)C[C@H](OC)[C@H](OC)[C@@H](C)/C=C(\C)[C@H](OC(N)=O)[C@@H](OC)/C=C\C=C(/C)C(=O)NC(=CC1=O)C2=O (stereo in doubt)	280 nM	760 nM	1300 nM	360 nM	2500 nM	3500 nM
> 25000 nM		78 h	C=CCNC1=C2C[C@@H](C)C[C@H](OC)[C@H](OC(=O)CN)[C@@H](C)/C=C(\C)[C@H](OC(N)=O)[C@@H](OC)/C=C\C=C(/C)C(=O)NC(=CC1=O)C2=O (stereo in doubt)	350 nM					
> 10000 nM		> 350 h	COC1=C2C[C@@H](C)C[C@H](OC)[C@H](OC(=O)CCCN)[C@@H](C)/C=C(\C)[C@H](OC(N)=O)[C@@H](OC)/C=C\C=C(/C)C(=O)NC(=CC1=O)C2=O (stereo in doubt)	> 1000 nM					
4000 nM	5.7		CO[C@H]1/C=C\C=C(/C)C(=O)NC2=CC(=O)C(NCCN(C)C)=C(C[C@@H](C)C[C@H](OC)[C@H](NCC(F)(F)F)[C@@H](C)/C=C(\C)[C@@H]1OC(N)=O)C2=O (stereo in doubt)	270 nM					
> 50000 nM	6		CO[C@H]1/C=C\C=C(/C)C(=O)NC2=CC(=O)C(NCCN(C)C)=C(C[C@@H](C)C[C@H](OC)[C@H](NCCN(C)C)[C@@H](C)/C=C(\C)[C@@H]1OC(N)=O)C2=O (stereo in doubt)	460 nM					
> 25000 nM		95 h	COC1=C2C[C@@H](C)C[C@H](OC)[C@H](OC(=O)CN)[C@@H](C)/C=C(\C)[C@H](OC(N)=O)[C@@H](OC)/C=C\C=C(/C)C(=O)NC(=CC1=O)C2=O (stereo in doubt)	480 nM					
> 25000 nM		130 h	C=CCNC1=C2C[C@@H](C)C[C@H](OC)[C@H](OC(=O)CCN)[C@@H](C)/C=C(\C)[C@H](OC(N)=O)[C@@H](OC)/C=C\C=C(/C)C(=O)NC(=CC1=O)C2=O (stereo in doubt)	1800 nM					
